Results as given in ChEMBL document CHEMBL1154997, “Inhibitors of dipeptidyl peptidase 8 and dipeptidyl peptidase 9. Part 1: identification of dipeptide derived leads” (Bioorg Med Chem Lett, 2008).

Molecular target: Dipeptidyl peptidase 8 (Homo sapiens, UniProt Q6V1X1)
Sequence (Q6V1X1 whole entry): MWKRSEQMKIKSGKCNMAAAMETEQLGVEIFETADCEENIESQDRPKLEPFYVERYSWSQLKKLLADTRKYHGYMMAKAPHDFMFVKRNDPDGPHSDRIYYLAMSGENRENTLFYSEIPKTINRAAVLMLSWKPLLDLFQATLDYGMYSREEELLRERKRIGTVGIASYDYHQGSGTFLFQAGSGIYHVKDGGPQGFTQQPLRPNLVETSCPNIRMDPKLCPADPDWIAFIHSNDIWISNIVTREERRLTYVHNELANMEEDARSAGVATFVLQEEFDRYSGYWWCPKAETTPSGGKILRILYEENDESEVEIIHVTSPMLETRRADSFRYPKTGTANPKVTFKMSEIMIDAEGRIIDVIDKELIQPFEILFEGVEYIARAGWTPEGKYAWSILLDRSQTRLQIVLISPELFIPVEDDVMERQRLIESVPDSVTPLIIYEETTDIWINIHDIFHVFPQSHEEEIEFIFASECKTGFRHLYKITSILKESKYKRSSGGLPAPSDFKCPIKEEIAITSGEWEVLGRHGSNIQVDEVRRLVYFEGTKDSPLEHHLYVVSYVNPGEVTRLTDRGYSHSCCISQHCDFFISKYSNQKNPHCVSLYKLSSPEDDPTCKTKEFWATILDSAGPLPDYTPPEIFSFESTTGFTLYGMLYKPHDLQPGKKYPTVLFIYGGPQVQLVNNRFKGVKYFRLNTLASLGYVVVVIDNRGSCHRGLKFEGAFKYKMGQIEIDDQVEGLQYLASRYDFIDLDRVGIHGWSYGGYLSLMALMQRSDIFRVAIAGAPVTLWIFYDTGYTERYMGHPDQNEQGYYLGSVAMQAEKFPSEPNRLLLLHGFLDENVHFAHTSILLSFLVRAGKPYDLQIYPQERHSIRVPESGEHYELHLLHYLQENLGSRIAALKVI

| IC50 [µM] | SMILES |
| --- | --- |
| > 1000 | NCC(=O)N1CCCC1 |
| > 500 | N[C@@H](CCCCNC(=O)OCc1ccccc1)C(=O)N1CCCc2ccccc21 |
| 312 | NCCCC[C@H](N)C(=O)N1CCCc2ccccc21 |
| > 500 | N[C@@H](Cc1c[nH]cn1)C(=O)N1CCCC1 |
| > 1000 | N[C@@H](CCC(=O)O)C(=O)N1CCCC1 |
| 242 | N[C@@H](Cc1c[nH]c2ccccc12)C(=O)N1CCCC1 |
| > 500 | N[C@@H](CO)C(=O)N1CCCC1 |
| 139 | NCCCC[C@H](N)C(=O)N1CCC(O)C1 (stereo partly specified) |
| 130 | CC[C@H](C)[C@H](N)C(=O)N1CCC(O)C1 (stereo partly specified) |
| > 1000 | N[C@@H](CC(=O)O)C(=O)N1CCCC1 |
| 127 | CC[C@H](C)[C@H](N)C(=O)N1CCC1 |
| > 1000 | CC[C@H](C)[C@H](N)C(=O)NC1CCCC1 |
| > 500 | NC(=O)C[C@H](N)C(=O)N1CCCC1 |
| 612 | CC[C@H](C)[C@H](N)C(=O)N1CCCCCC1 |
| 411 | C[C@H](N)C(=O)N1CCCC1 |
| 115 | N[C@@H](Cc1ccccc1)C(=O)N1CCCC1 |

Molecular target: Dipeptidyl peptidase 9 (Homo sapiens, UniProt Q86TI2)
Sequence (Q86TI2 whole entry): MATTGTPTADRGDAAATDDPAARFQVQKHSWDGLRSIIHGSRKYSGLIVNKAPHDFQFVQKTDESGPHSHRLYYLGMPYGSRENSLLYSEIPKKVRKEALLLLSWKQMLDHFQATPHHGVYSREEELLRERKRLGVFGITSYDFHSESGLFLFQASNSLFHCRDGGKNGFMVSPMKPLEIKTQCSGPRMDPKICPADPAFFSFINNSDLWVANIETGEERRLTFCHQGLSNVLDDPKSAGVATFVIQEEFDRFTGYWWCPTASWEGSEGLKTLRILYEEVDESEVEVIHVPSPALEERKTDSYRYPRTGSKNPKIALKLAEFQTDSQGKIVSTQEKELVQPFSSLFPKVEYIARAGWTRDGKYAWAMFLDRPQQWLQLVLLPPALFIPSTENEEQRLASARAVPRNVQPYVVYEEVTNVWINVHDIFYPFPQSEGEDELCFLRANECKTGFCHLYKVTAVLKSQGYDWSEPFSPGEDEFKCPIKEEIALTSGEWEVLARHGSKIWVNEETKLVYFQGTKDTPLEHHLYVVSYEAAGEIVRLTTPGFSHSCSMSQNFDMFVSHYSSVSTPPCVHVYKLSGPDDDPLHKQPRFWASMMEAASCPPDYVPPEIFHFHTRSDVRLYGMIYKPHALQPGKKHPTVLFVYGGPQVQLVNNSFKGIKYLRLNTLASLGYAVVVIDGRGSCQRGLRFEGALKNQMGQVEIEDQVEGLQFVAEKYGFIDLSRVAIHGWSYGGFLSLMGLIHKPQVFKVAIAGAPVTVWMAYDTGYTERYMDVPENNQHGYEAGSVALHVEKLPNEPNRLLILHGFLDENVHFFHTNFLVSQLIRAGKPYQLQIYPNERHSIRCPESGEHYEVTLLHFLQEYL

| SMILES | IC50 [µM] |
| --- | --- |
| CC[C@H](C)[C@H](N)C(=O)N1CC=CCC1 | > 50 |
| NCC(=O)N1CCCC1 | > 1000 |
| N[C@@H](CCCCNC(=O)OCc1ccccc1)C(=O)N1CCCc2ccccc21 | > 100 |
| NCCCC[C@H](N)C(=O)N1CCCc2ccccc21 | > 100 |
| N[C@@H](CCC(=O)O)C(=O)N1CCCC1 | > 100 |
| N[C@@H](Cc1c[nH]c2ccccc12)C(=O)N1CCCC1 | > 100 |
| CC[C@H](C)[C@H](N)C(=O)N1CCC(O)C1 (stereo partly specified) | > 100 |
| CC[C@H](C)[C@H](N)C(=O)N1CCC1 | > 100 |
| CC[C@H](C)[C@H](N)C(=O)NC1CCCC1 | > 100 |
| CC[C@H](C)[C@H](N)C(=O)N1CCCCCC1 | > 100 |

Further lines, results first:

| IC50 [µM] | SMILES |
| --- | --- |
| > 100 | N[C@@H](Cc1c[nH]cn1)C(=O)N1CCCC1 |
| 76.6 | N[C@@H](CCNCc1ccc(Cl)cc1)C(=O)N1CCCCC1 |

Molecular target: Dipeptidyl peptidase 4 (Homo sapiens, UniProt P27487)
Sequence (P27487 whole entry): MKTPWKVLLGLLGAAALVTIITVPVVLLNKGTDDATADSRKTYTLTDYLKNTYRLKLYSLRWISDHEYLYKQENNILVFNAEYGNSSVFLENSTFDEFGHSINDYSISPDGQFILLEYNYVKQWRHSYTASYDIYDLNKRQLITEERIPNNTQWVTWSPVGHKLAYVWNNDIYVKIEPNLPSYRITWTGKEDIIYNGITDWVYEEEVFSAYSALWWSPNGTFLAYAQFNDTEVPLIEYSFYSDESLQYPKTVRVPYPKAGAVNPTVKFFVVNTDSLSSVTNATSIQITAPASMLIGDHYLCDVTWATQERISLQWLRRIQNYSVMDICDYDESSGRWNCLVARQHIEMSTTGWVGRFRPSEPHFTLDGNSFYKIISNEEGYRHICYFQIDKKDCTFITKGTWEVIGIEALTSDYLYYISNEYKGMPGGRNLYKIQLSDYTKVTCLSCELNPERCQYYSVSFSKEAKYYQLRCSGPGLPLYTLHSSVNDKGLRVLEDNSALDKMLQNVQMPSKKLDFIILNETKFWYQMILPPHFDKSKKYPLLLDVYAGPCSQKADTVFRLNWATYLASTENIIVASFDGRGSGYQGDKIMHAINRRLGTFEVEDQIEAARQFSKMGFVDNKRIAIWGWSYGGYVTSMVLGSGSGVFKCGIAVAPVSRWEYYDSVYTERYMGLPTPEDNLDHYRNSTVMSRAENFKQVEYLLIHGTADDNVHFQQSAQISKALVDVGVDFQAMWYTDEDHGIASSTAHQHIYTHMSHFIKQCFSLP

| SMILES | IC50 [µM] |
| --- | --- |
| CC[C@H](C)[C@H](N)C(=O)N1CC=CCC1 | 52 |
| CC[C@H](C)[C@H](N)C(=O)N1CCC(N=[N+]=[N-])C1 (stereo partly specified) | 107 |
| C[C@@H](O)[C@H](N)C(=O)N1CCCC1 | 98 |
| N[C@@H](CCCCNC(=O)OCc1ccccc1)C(=O)N1CCCc2ccccc21 | > 1000 |
| CC[C@H](C)[C@H](N)C(=O)N1CCC(Cl)C1 (stereo partly specified) | 94 |
| NCCCC[C@H](N)C(=O)N1CCCc2ccccc21 | > 1000 |
| CC(C)C[C@H](N)C(=O)N1CCCC1 | 24 |
| N[C@@H](CCC(=O)O)C(=O)N1CCCC1 | > 1000 |
| N[C@@H](Cc1c[nH]c2ccccc12)C(=O)N1CCCC1 | 286 |
| CCCC[C@H](N)C(=O)N1CCCC1 | 15 |
| N[C@@H](CO)C(=O)N1CCCC1 | 190 |
| CC[C@H](C)[C@H](N)C(=O)N1CCC(F)C1 (stereo partly specified) | 3.5 |
| NCCCC[C@H](N)C(=O)N1CCC(O)C1 (stereo partly specified) | 500 |
| CC[C@H](C)[C@H](N)C(=O)N1CC=CC1 | 15 |
| CC[C@H](C)[C@H](N)C(=O)N1CCCCC1 | 67 |
| CC[C@H](C)[C@H](N)C(=O)N1CCC(O)C1 (stereo partly specified) | 93 |
| CC[C@H](C)[C@H](N)C(=O)N1CCC1 | 50.4 |
| CC[C@H](C)[C@H](N)C(=O)NC1CCCC1 | > 1000 |
| N[C@@H](CS)C(=O)N1CCCC1 | 37 |
| NC(=O)C[C@H](N)C(=O)N1CCCC1 | 188 |
| CC[C@H](C)[C@H](N)C(=O)N1CCCCCC1 | 374 |
| N[C@@H](Cc1ccccc1)C(=O)N1CCCC1 | 21 |

Second part, the molecule after the results:

| IC50 [µM] | SMILES |
| --- | --- |
| 16.8 | N=C(NCCC[C@H](NC(=O)OCc1ccccc1)C(=O)N1CCCC1)NC(=O)OCc1ccccc1 |
| 39 | NCCCC[C@H](N)C(=O)N1CCCC1 |
| 15.6 | N[C@@H](CCCCNC(=O)OCc1ccccc1)C(=O)N1CCCC1 |
| 0.56 | N#C[C@@H]1C[C@H](N=[N+]=[N-])CN1C(=O)[C@@H](N)CCCCNc1ccc2ccccc2c1 |
| 3.7 | N[C@@H](CCCCNC(=O)OCc1ccccc1)C(=O)N1CCSC1 |
| 12.7 | N=C(N)NCCC[C@H](N)C(=O)N1CCCC1 |
| 23.1 | N[C@@H](Cc1c[nH]cn1)C(=O)N1CCCC1 |
| 118 | NCCC[C@H](N)C(=O)N1CCCC1 |
| 9.7 | N[C@@H](CCCNC(=O)OCc1ccccc1)C(=O)N1CCCC1 |
| 51 | N#C[C@@H]1CCCCN1C(=O)[C@@H](N)CCCCN |
| 23 | NCCCC[C@H](N)C(=O)N1CCSC1 |
| 0.035 | N#C[C@@H]1CCCN1C(=O)[C@@H](N)CCCCNC(=O)OCc1ccccc1 |
| 43.5 | N[C@@H](Cc1ccc(O)cc1)C(=O)N1CCCC1 |
| 2.5 | N#C[C@@H]1C[C@H](N=[N+]=[N-])CN1C(=O)[C@@H](N)CCCCN(c1cccc2ccccc12)c1cccc2ccccc12 |
| 0.53 | N#C[C@@H]1C[C@H](N=[N+]=[N-])CN1C(=O)[C@@H](N)CCCCNC(=O)OCc1ccccc1 |
| 2.2 | N#C[C@@H]1C[C@H](N=[N+]=[N-])CN1C(=O)[C@@H](N)CCCCN |

Molecular target: Dipeptidyl peptidase 2 (Homo sapiens, UniProt Q9UHL4)

| SMILES | IC50 [µM] | Ki [pM] |
| --- | --- | --- |
| CC[C@H](C)[C@H](N)C(=O)N1CC=CCC1 | 52 | – |
| CC[C@H](C)[C@H](N)C(=O)N1CCC(N=[N+]=[N-])C1 (stereo partly specified) | 43 | – |
| C[C@@H](O)[C@H](N)C(=O)N1CCCC1 | 230 | – |
| N[C@@H](CCCCNC(=O)OCc1ccccc1)C(=O)N1CCCc2ccccc21 | 390 | – |
| CC[C@H](C)[C@H](N)C(=O)N1CCC(Cl)C1 (stereo partly specified) | 30 | – |
| NCCCC[C@H](N)C(=O)N1CCCc2ccccc21 | 393 | – |
| CC(C)C[C@H](N)C(=O)N1CCCC1 | 122 | – |
| N[C@@H](CCC(=O)O)C(=O)N1CCCC1 | > 1000 | – |
| N[C@@H](Cc1c[nH]c2ccccc12)C(=O)N1CCCC1 | 49 | – |
| CCCC[C@H](N)C(=O)N1CCCC1 | 60 | – |
| N[C@@H](CO)C(=O)N1CCCC1 | 65 | – |
| CC(C)[C@H](N)C(=O)N1CCCC1 | 153 | – |
| CC[C@H](C)[C@H](N)C(=O)N1CCC(F)C1 (stereo partly specified) | 111 | – |
| NCCCC[C@H](N)C(=O)N1CCC(O)C1 (stereo partly specified) | 48 | – |
| CC[C@H](C)[C@H](N)C(=O)N1CC=CC1 | 288 | – |
| CC[C@H](C)[C@H](N)C(=O)N1CCCCC1 | 59 | – |
| CC[C@H](C)[C@H](N)C(=O)N1CCC(O)C1 (stereo partly specified) | 299 | – |
| CC[C@H](C)[C@H](N)C(=O)N1CCC1 | 730 | – |
| CC[C@H](C)[C@H](N)C(=O)NC1CCCC1 | > 100 | – |
| N[C@@H](CS)C(=O)N1CCCC1 | 19 | – |
| NC(=O)C[C@H](N)C(=O)N1CCCC1 | 152 | – |
| CC[C@H](C)[C@H](N)C(=O)N1CCCCCC1 | 228 | – |
| N[C@@H](Cc1ccccc1)C(=O)N1CCCC1 | 79 | – |

The next lines start with the values.

| IC50 [µM] | Ki [pM] | SMILES |
| --- | --- | --- |
| 0.86 | – | N=C(NCCC[C@H](NC(=O)OCc1ccccc1)C(=O)N1CCCC1)NC(=O)OCc1ccccc1 |
| 9.9 | – | NCCCC[C@H](N)C(=O)N1CCCC1 |
| 4.9 | – | [N-]=[N+]=NC1CCN(C(=O)[C@@H](N)CCCCN)C1 (stereo partly specified) |
| 5.7 | – | N[C@@H](CCCCNC(=O)OCc1ccccc1)C(=O)N1CCCC1 |
| 0.034 | – | N#C[C@@H]1C[C@H](N=[N+]=[N-])CN1C(=O)[C@@H](N)CCCCNc1ccc2ccccc2c1 |
| 1.02 | – | N[C@@H](CCCCNC(=O)OCc1ccccc1)C(=O)N1CCSC1 |
| 3.1 | – | N=C(N)NCCC[C@H](N)C(=O)N1CCCC1 |
| 1.2 | – | N[C@@H](Cc1c[nH]cn1)C(=O)N1CCCC1 |
| 0.577 | – | N#C[C@@H]1CCCN1C(=O)[C@@H](N)CCCCN |
| 9.8 | – | NCCC[C@H](N)C(=O)N1CCCC1 |
| 3.7 | – | N[C@@H](CCCNC(=O)OCc1ccccc1)C(=O)N1CCCC1 |
| 1.5 | – | N#C[C@@H]1CCCCN1C(=O)[C@@H](N)CCCCN |
| 0.086 | – | CC(C)[C@H](N)C(=O)N1CSC[C@H]1B(O)O |
| 2.9 | – | NCCCC[C@H](N)C(=O)N1CCSC1 |
| 0.84 | – | N#C[C@@H]1CCCN1C(=O)[C@@H](N)CCCCNC(=O)OCc1ccccc1 |
| 15.7 | – | N[C@@H](Cc1ccc(O)cc1)C(=O)N1CCCC1 |
| 0.068 | – | N#C[C@@H]1C[C@H](N=[N+]=[N-])CN1C(=O)[C@@H](N)CCCCN(c1ccc2ccccc2c1)c1ccc2ccccc2c1 |
| 0.025 | – | N#C[C@@H]1C[C@H](N=[N+]=[N-])CN1C(=O)[C@@H](N)CCCCN(c1cccc2ccccc12)c1cccc2ccccc12 |
| 0.35 | – | N#C[C@@H]1C[C@H](N=[N+]=[N-])CN1C(=O)[C@@H](N)CCCCNC(=O)OCc1ccccc1 |
| 0.31 | – | N#C[C@@H]1C[C@H](N=[N+]=[N-])CN1C(=O)[C@@H](N)CCCCN |
| < 0.0005 | 82 | N[C@@H](CCNCc1ccc(Cl)cc1)C(=O)N1CCCCC1 |
